Consider 21 molecules from US8691760B2, “Peptides, pharmaceutical compositions comprising same and uses thereof” (priority 2009, dated 2014).

pIC50: −log10 of the molar value. “And” between values parts separate entries of the source, which are not always exact repeats. Equal entries are not always repeated. “Also recorded” adds a separate entry of the source. Where two headings read alike, the source gives them in different places. Ends that are not written are not given here. Peptide text beside a SMILES is read from it.

Data set [1] deals with T1, rat recombinant IDE (Rattus norvegicus, UniProt P35559).
T1 construct: purchased Calbiochem (InnoZyme Insulysin/IDE Immunocapture Activity Assay Kit) CBA079
T1 sequence (P35559 whole entry): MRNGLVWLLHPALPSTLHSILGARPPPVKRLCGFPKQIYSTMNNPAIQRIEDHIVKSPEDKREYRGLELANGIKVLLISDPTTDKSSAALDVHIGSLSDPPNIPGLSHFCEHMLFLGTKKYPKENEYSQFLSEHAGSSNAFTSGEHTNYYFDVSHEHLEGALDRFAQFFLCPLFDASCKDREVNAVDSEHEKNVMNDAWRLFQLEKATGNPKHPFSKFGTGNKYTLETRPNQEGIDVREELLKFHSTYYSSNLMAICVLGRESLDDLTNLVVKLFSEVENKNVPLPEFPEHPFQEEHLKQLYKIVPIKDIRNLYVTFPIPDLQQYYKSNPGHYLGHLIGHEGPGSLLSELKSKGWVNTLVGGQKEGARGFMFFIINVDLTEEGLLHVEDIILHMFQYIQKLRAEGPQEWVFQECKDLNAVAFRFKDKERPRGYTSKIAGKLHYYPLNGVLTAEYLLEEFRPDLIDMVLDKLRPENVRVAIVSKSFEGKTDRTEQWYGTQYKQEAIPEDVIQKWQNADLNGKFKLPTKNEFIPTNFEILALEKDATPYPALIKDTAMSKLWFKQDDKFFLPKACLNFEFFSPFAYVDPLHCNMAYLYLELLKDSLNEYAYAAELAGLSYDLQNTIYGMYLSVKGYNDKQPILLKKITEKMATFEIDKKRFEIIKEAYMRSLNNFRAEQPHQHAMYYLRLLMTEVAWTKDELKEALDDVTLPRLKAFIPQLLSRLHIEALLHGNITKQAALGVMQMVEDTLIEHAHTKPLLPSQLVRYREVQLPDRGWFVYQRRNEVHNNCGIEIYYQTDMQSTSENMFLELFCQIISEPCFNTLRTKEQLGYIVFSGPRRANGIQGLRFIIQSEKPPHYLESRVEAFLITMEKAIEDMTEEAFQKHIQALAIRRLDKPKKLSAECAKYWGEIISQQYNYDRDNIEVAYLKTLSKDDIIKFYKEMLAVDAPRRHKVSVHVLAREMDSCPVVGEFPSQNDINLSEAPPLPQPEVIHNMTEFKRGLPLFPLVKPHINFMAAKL
Briefly: Fluorometric IDE activity assay (InnoZyme Insulysin/IDE Immunocapture Activity Assay Kit, FRET substrate). It counts as biochemical. The note with it: 16 hours at 37° C.; for pIC50: 3 repeated experiments. As for the experimental part: For example, one method that may be used (as described in detail in Example 2, of the Examples section which follows) comprises the use of Insulysin/IDE Immunocapture Activity Assay Kit (available e.g. from InnoZyme™, Calbiochem). Using this kit ELISA plates are first coated with the target enzyme (i.e. IDE) and then the plates are incubated with the synthesized peptide. The enzymatic activity is measured in comparison to wells without the peptide using for example a FRET substrate, Mca-[…]-EDDnp (SEQ ID NO: 11). Cleavage of the scissile amide bond between R and K releases the fluorophore from the quenching molecule, Dnp, resulting in an increase in fluorescence. The increase in fluorescence is measured using an excitation wavelength of 320 nm and an emission wavelength of 405 nm.
In order to measure IDE activity, coating of ELISA plates with the target enzyme (i.e. IDE) was carried out. Next, plates were incubated with the selected synthesized peptide candidate and the enzymatic activity was measured as compared to wells without the peptide candidate. This was carried out using InnoZyme™ Insulysin/IDE Immunocapture Activity Assay Kit from Calbiochem (worldwidewebdotmerckbiosciencesdotcom/Products/pdsdotaspquestionmarkcatnoequal CBA079), a specific and sensitive assay for measuring active IDE in cell lysates, tissue extracts and biological fluids.
Peptide ability to inhibit IDE activity was measured using InnoZyme™ Insulysin/IDE Immunocapture activity assay kit (Calbiochem), an affinity purified polyclonal antibody that recognized human, mouse, and rat insulysin, immobilized on a 96-well plate to capture the enzyme. In brief, rat recombinant IDE (1.14 nM) was incubated with increasing amounts of the candidate inhibitors with doses ranging from 1-100 μM for 16 hours at 37° C. and the activity of captured IDE was measured using a FRET substrate, Mca-[…]-EDDnp (SEQ ID NO: 11). Cleavage of the scissile amide bond between R and K released the fluorophore from the quenching molecule, Dnp, resulting in an increase in fluorescence. The increase in fluorescence was measured using an excitation wavelength of 320 nm and an emission wavelength of 405 nm. As a control, the kit used rat recombinant IDE. IC50 were evaluated following three repeated experiments.
Specifically, rat recombinant IDE (1.14 nM) was incubated with different doses of ADT-21 ([…]) for 16 hours at 37° C. and the activity of the captured insulysin (IDE) was measured using a FRET substrate, Mca-[…]-EDDnp (SEQ ID NO: 11) using Florolog with the following parameters Ex=320 nm, Gm=405 nm, Slit=2, Maximum trails=10, Integration time=1, Target standard deviation=1%.

In data set [2] the target is IDE (Homo sapiens, UniProt P14735). Kind of data set: Blocking of VZV gE interaction with IDE. It counts as binding. The note with it: data not shown.
Data set [3] concerns NOD mice. Kind of data set: NOD mouse model of insulin dependent diabetes mellitus, nasal administration, blood glucose / diabetes onset. It counts as in vivo. The source says:
(§1) A NOD mouse model has been used as previously described as a model for insulin dependent diabetes mellitus (IDDM) [Atkinson et al., (1990) Diabetes 39, 933-937]. Diabetes in NOD (NOD/ShiLtJ) mice is characterized by insulitis and marked decreases in pancreatic insulin content that occurred in females at about 15 weeks of age. The animals were monitored carefully when receiving the different treatments. Onset of diabetes was marked by moderate glycosuria and by non-fasting plasma glucose higher than 250 mg/dl.
(§2) 12 week old NOD mice were divided into two groups of 10-12 mice each, receiving, every other day, nasal administration of 10 μl of the respective peptide (3.76 μg/kg) or control PBS.
Mice were monitored for blood glucose levels weekly using glucose test strip (Elite, BAYER).

Data set [4] concerns NOD mice. Kind of data set: Blood insulin levels in NOD mice at 30 weeks (HTRF Insulin assay). It counts as in vivo, mouse. The note with it: serum.
Description: as §1, §2
Mice were monitored for insulin blood levels at 30 week using HTRF® Insulin assay (Cisbio bioassays).

The test system of data set [5] is splenocytes obtained from NOD mice. Briefly: IFN-γ and IL-17 secretion from splenocytes of ADT21-treated NOD mice (ELISA). The note with it: splenocytes of treated NOD mice (30 weeks), incubated with insulin 48 hours. It counts as in vivo, mouse. As for the experimental part:
Splenocytes were obtained from NOD mice at the age of 30 weeks. Splenocytes were obtained from both control and ADT21-treated mice. Splenocytes were cultured in T cell medium buffer and plated at 1×10^6 cells per well with and without bovine insulin (Sigma) for 48 hours as previously described [Frenkel et al. (2003) J Immunol 171, 6549-6555].
(§3) Secretions of IFN-γ and IL-17 were measured in 48 hour cultured supernatants by ELISA. Briefly, 96 well plates were coated overnight with 1.5 μg/ml capture antibody (R&D Systems). Supernatants (as described above) were incubated overnight and detection biotinylated antibody (1 μg/ml, R&D Systems) was added for 1 hour. Plates were covered for 30 minutes with avidin-HRP conjugate and […] was used as a substrate for color development. 1M H2SO4 was used as a stop solution. Plates were measured using an ELISA plate reader at 405 nm.
(In general: An ELISA detects its analyte on a solid surface through an enzyme-linked reagent.)

The target of data set [6] is IDE (Rattus norvegicus, UniProt P35559). Briefly: In vitro insulin degradation assay (bovine insulin + IDE, insulin ELISA). It counts as biochemical. The note with it: ADT21 0.2 nM; insulin 0.87 nM, IDE 1.14 nM, 16 hours at 37° C. The method, then:
Insulin (0.87 nM) isolated from bovine pancreas (SIGMA) was incubated for 16 hours at 37° C. in the presence or absence of IDE (1.14 nM) together with the inhibitors (0.002-0.2 nM). The levels of insulin degradation were analyzed using mouse insulin ELISA kit (Mercodia).
In order to verify that ADT21 reduces degradation of insulin by IDE, inventors incubated bovine insulin for 16 hours at 37° C. with or without IDE (1.14 nM) along with ADT21. The levels of insulin degradation were analyzed using a mouse insulin ELISA kit (as described in the “materials and experimental procedures” section above). […] Therefore, inventors speculated that the use of this inhibitor in vivo would delay insulin degradation without preventing IDE activity.

The test system of data set [7] is NOD mice. Briefly: IGF-1 blood level in NOD mice at 30 weeks (AssayMax mouse IGF1 kit). It counts as in vivo. The source says: NOD mice were monitored for the blood level of Insulin growth factor 1 (IGF-1) at 30 weeks using AssayMax mouse IGF1 kit.
For data set [8], the system named is NOD mice. Briefly: Degree of insulitis, histological analysis of the pancreas of NOD mice. It counts as in vivo, mouse. The settings on record: NOD mice at 30 weeks, vs PBS-treated group. The source says:
Randomly selected animals from each group (at 30 weeks) were sacrificed and the pancreas of each was examined in a double-blind fashion for insulitis using histological analysis of the pancreas as previously described [Frenkel et al. (2003) J Immunol 171, 6549-6555]. Six to ten islets per mouse were individually scored by two independent observers using a semi-quantitative scale ranging from 0-4 as follows: 0, normal islet with no sign of T cell infiltration; 1, islet associated with perivascular, periductal leukocytic infiltration only; 2, more extensive peri-islet infiltration, but with lymphocytes with less than 25% islet destruction; 3 more than 25% islet destruction; and 4, complete islet destruction.

Data set [9] relates to CD4+ T-cells. Kind of data set: Co-culture of CD4+ T-cells of insulin-immunized NOD mice with spleen cells, IFN-γ and IL-17 ELISA. It counts as cell-based, mouse. The settings on record: co-culture with 10 μg/ml insulin, with or without 100 nM ADT21, 48 h. As for the experimental part: as §3
NOD mice were immunized subcutaneously (s.c.) with bovine insulin (SIGMA) (n=6-7). 10 days later, CD4+ T-cells were isolated from the spleens of these mice using magnetic beads for negative selection (Miltenyi Biotec). The CD4+ T cells were co-cultured at a concentration of 1×10^6 cells/well in 96-well plates at a ratio of 1:1 with cells obtained from spleens of non immunized NOD mice (n=5). The co-culture was incubated with 10 μg/ml insulin with or without 100 nM ADT21. Supernatants were collect after 48 h of co-culture for cytokine measurements by ELISA for IL-17 and IFN-γ.

The mark [10] stands for this setting: IC50, rat recombinant IDE 1.14 nM, FRET substrate Mca-GGFLRKHGQ-EDDnp.

Sequence of IDE (Rattus norvegicus, UniProt P35559) (P35559 whole entry): as above

Usually pIC50 stands for the IC50 on a negative log10 scale, so that one unit is a factor of ten. For the molecule DAEFGSGGSSKLVFDDFAED [ADT25], the pIC50 in data set [1] (setting [10]) is 6.22. Still for that read-out and setting: with DAEFGSGGSSEALYDDLVCG [ADT82] the figure was 6.36; with KLVFDDFAED [ADT5, KLVFDDFAED], 6.26. On the same count and under the same terms, to HSQGGSGGSSFVQWDDLMN [ADT24] belongs 6.76; to FVNQGSGGSSVLRYDDFHTD [ADT51], 6.31. As to `N[C@@H](CC(=O)O)C(=O)N[C@@H](CC(=O)O)C(=O)O` [ADT-31, DD] (H-Asp-Asp-OH), in [1] (rat recombinant IDE 1.14 nM, FRET substrate Mca-[…]-EDDnp, read-out: IC50), the pIC50 was 6.13. LANFDDLVHSSNN [ADT3]: the pIC50 in data set [1] (setting [10]) is 6.10. Still for that read-out and setting: with VLRYDDFHTD [ADT1] the figure was 6.84. Turning to VLRYNNFHTD [ADT5N], the “inhibition of IDE activity (in words)” value in [1] (rat recombinant IDE 1.14 nM) was “prevented the inhibition of IDE”. On to KCNTGSGGSSLANFDDLVHSSNN [ADT23], for which the pIC50 in data set [1] (setting [10]) is 6.21. As to EALYDDLVCG [ADT2], the pIC50 in data set [1] (setting [10]) was 6.64.

On to “ITNPVRASVLRYDDFHTD [VZV, reference compound]”, for which the pIC50 in data set [1] (setting [10]) is 6.35. The same measure, in the same setting: to ITNPGSGGSSEALYDDLVCG [ADT41] belongs 6.48.

KCNTGSGGSSVLRYDDFHTD [ADT61]: the pIC50 in data set [1] (setting [10]) is 6.08. Consider HSQGGSGGSSVLRYDDFHTD [ADT71], for which the pIC50 in [1] (setting [10]) is 5.86. Still for that read-out and setting: to ITNPGSGGSSKLVFDDFAED [ADT44] belongs 6.26. As to “VZV gE (24-50): synthetic peptide corresponding to amino acids 24-50 of VZV gE (ITNPVRASVLRYDDFHTDEDKLDTNSV; A peptide sequence derived from VZV gE (24-50))”, the “blocking of VZV gE interaction with IDE” value in data set [2] is “blocked VZV gE interaction with IDE in a concentration dependent manner”. As to EALYLVCG [INS, reference compound], the pIC50 in data set [1] (setting [10]) is 6.33. On to ITNPGSGGSSVLRYDDFHTD [ADT21], for which, in data set [3] (NOD mice treated from 12 weeks, every other day, 3.76 μg/kg (94 ng/day), untreated: 15 weeks), the “age at first conversion to diabetes” value amounted to 20 weeks. In addition, the “behavioral changes that might indicate toxicity (body weight, eating habits, tail tone, mobility)” value in [3] (NOD mice, every other day) is “no behavioral changes”. Also, the “animals remaining disease-free at 30 weeks” value in [3] (NOD mice, every other day from 12 weeks, 71% of control mice diabetic) turned out to be 75%. In addition, the “disease progression (in words)” value in data set [3] (NOD mice, every other day, vs PBS, P<0.05) is on record as “significantly delayed”. Also, in [4] (printed: compared to sick NOD mice), the “blood insulin level relative to reference NOD mice” value was found to be 62%. Also, the “increase in blood insulin” value in data set [4] (vs control group) was “about 400%”. The “reduction in the levels of IL-17” value in data set [5] came to 52%. In addition, the pIC50 in [1] (setting [10]) was 7.00 and 6.70 to 8.00. Further, in data set [1] (rat recombinant IDE 1.14 nM), the “inhibition of IDE activity (in words)” value is “dose dependent and high efficacy in inhibition of IDE activity; also recorded: inhibits IDE activity in a dose dependant manner”. Besides, the “reduction of insulin degradation by IDE” value in data set [6] is 400%. The “toxic effect related to IGF1 elevation” value in data set [7] (IGF1 below the basal level (about 1000 ng/ml in wild type mice)) is “no toxic effect was observed”. Moreover, the IGF1 blood level in data set [7] (NOD mice at 30 weeks, control NOD mice 33 ng/ml) was determined as 440 ng/mL. Further, in data set [8], the “infiltration of T cells in pancreatic islets (insulitis)” value is recorded as “significantly less infiltration of T cells”. For the same molecule, the “release of IFN-γ” value in data set [9] (p<0.01) was “dose dependant reduction”. Besides, the “release of IL-17” value in [9] (p<0.05) is recorded as “dose dependant reduction”. Regarding HSQGGSGGSSEALYDDLVCG [ADT72], the pIC50 in data set [1] (setting [10]) is 6.93. Regarding ITNPGSGGSSLANFDDLVHSSNN [ADT42], the pIC50 in [1] (setting [10]) is 6.70.
